Laboratory results from publication PMC9120017, “Inhibition mechanism of the chloride channel TMEM16A by the pore blocker 1PBC” (Nature Communications, 2022).
Like-named read-outs stand apart in the source and are kept apart here.

Target: T1, mouse TMEM16A mutant Q637A (Mus musculus, UniProt Q8BHY3, Q637A)
T1 construct: expressed in transfected cells; host or cells: HEK293T
T1 sequence (Q8BHY3 1-960 Q637A): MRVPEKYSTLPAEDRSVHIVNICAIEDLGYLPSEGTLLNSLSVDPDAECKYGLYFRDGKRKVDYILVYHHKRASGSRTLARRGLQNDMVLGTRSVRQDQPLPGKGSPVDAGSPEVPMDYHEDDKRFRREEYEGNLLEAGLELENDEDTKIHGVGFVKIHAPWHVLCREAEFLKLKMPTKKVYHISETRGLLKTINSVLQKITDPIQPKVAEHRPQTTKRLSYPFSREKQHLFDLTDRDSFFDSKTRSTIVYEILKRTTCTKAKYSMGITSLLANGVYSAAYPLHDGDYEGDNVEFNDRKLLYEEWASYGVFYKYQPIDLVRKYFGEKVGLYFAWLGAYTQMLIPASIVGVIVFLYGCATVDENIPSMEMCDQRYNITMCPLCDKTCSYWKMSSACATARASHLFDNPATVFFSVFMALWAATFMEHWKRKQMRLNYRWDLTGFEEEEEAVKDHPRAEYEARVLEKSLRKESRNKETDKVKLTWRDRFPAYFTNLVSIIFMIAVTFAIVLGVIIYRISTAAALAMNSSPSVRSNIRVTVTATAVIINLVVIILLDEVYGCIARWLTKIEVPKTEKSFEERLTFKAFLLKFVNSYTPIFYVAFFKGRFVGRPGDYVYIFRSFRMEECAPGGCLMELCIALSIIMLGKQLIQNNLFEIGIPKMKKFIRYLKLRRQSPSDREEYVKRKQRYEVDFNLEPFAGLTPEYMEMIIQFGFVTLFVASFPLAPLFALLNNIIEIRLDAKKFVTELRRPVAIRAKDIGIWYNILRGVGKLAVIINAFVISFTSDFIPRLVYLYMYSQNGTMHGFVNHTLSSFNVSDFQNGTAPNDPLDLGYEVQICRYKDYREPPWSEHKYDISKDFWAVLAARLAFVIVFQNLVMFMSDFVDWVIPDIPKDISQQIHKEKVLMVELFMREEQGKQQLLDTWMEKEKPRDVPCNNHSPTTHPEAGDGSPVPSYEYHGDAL
Test: Inside-out patch recording of 1PBC block, mutant Q637A
Assay type: cell-based
Conditions: for remaining activity at 1 µM: 1PBC conc 1; for remaining activity at 1 µM / remaining activity at 3 µM / remaining activity at 10 µM / remaining activity at 30 µM: read-out: relative current in 1PBC (avr); for remaining activity at 3 µM: 1PBC conc 3; for remaining activity at 10 µM: 1PBC conc 10; for remaining activity at 30 µM: 1PBC conc 30
Procedure: HEK293T cells (ATCC CRL-1573) were maintained in Dulbecco’s modified Eagle’s medium (DMEM; Sigma-Aldrich) supplemented with 10 U ml^−1 penicillin, 0.1 mg ml^−1 streptomycin (Sigma-Aldrich), 2 mM L-glutamine (Sigma-Aldrich), and 10% FBS (Sigma-Aldrich) in a humidified atmosphere containing 5% CO2 at 37 °C. HEK293S GnTI^− cells (ATCC CRL-3022) were maintained in HyClone HyCell TransFx-H medium (GE Healthcare) supplemented with 10 U ml^−1 penicillin, 0.1 mg ml^−1 streptomycin, 4 mM L-glutamine, 0.15% poloxamer 188 (Sigma-Aldrich), and 1% FBS in an atmosphere containing 5% CO2 at 185 rpm at 37 °C. The ac splice variant of mouse TMEM16A (UniProt ID: Q8BHY3), mouse TMEM16B (UniProt ID: Q8CFW1), or mouse TMEM16F (UniProt ID: Q6P9J9) bearing a 3C cleavage site, a Venus YFP, a Myc tag, and a Streptavidin-binding peptide (SBP) downstream of the open reading frame in a modified pcDNA3.1 vector (Invitrogen) were used as described previously[21],[31]. Mutations were introduced using a modified QuikChange method[58] and were verified by sequencing.
HEK293T cells were transfected with 3–4 μg DNA per 6 cm Petri dish using the calcium phosphate co-precipitation method and were used within 24–96 h after transfection. Recordings were performed on inside-out patches excised from HEK293T cells expressing the construct of interest. Patch pipettes were pulled from borosilicate glass capillaries (O.D. 1.5 mm, I.D. 0.86 mm, Sutter Instrument) and were fire-polished with a microforge (Narishige) before use. Pipette resistance was typically 3–8 MΩ when filled with the recording solutions detailed below. Seal resistance was typically 4 GΩ or higher. Voltage-clamp recordings were made using Axopatch 200B, Digidata 1550, and Clampex 10.7 (Molecular Devices). Analog signals were filtered with the in-built 4-pole Bessel filter at 10 kHz and were digitized at 20 kHz. Solution exchange was achieved using a gravity-fed system through a theta glass pipette mounted on an ultra-fast piezo-driven stepper (Siskiyou). […] All recordings were performed at 20 °C.
A symmetrical ionic condition was used throughout. Stock solution with Ca^2+-EGTA contained 150 mM NaCl, 5.99 mM Ca(OH)2, 5 mM EGTA, and 10 mM HEPES at pH 7.40. Stock solution with EGTA contained 150 mM NaCl, 5 mM EGTA, and 10 mM HEPES at pH 7.40. Free Ca^2+ concentrations were adjusted by mixing the stock solutions at the required ratios calculated using the WEBMAXC program (http://web.stanford.edu/~cpatton/webmaxcS.htm). Patch pipettes were filled with the stock solution with Ca^2+-EGTA, which has a free Ca^2+ concentration of 1 mM. 1PBC (ChemBridge) stock was reconstituted in anhydrous DMSO (Sigma-Aldrich) at 100 mM and stored at −20 °C. Working solutions with 1PBC were prepared by serial dilution. Unless otherwise stated, experiments were performed at a saturating Ca^2+ concentration as shown in Supplementary Table 1 and the primary data were corrected for current rundown as described previously[21],[25].
Concentration-response relations, obtained from the ratio of the I-V plots before and after the application of the blocker, were fitted to the Hill equation,1 I/Imax=1/1+IC50/[blocker]^h where I/Imax is the normalized current responses, IC50 defines the concentration at which inhibition is at its half-maximum, and h is the Hill coefficient.

Molecule `N#Cc1c(C(F)(F)F)cc(O)n2c1nc1ccccc12` [1PBC] has an IC50 (0 mV, 2 µM Ca2+) of 1.82 µM, a remaining activity at 1 µM (0 mV) of 65.8% and a remaining activity at 3 µM (0 mV) of 36.3%. For the same molecule, the remaining activity at 10 µM (0 mV) was 15.5%, the remaining activity at 30 µM (0 mV) was 6.35% and the IC50 (20 mV, 2 µM Ca2+) was 1.4 µM. For the same molecule, the remaining activity at 1 µM (20 mV) was 59.7%, the remaining activity at 3 µM (20 mV) was 30.3% and the remaining activity at 10 µM (20 mV) was 12.3%. It also gave a remaining activity at 30 µM (20 mV) of 4.62%, an IC50 (40 mV, 2 µM Ca2+) of 1.15 µM and a remaining activity at 1 µM (40 mV) of 54.8%. It also gave a remaining activity at 3 µM (40 mV) of 26.2%, a remaining activity at 10 µM (40 mV) of 10.3% and a remaining activity at 30 µM (40 mV) of 3.87%. It also gave an IC50 (60 mV, 2 µM Ca2+) of 0.956 µM, a remaining activity at 1 µM (60 mV) of 49.7% and a remaining activity at 3 µM (60 mV) of 22.8%. The remaining activity at 10 µM (60 mV) was 9%, the remaining activity at 30 µM (60 mV) was 3.77% and the “log-fold IC50 (change of mutant vs WT)” value (80 mV) was -0.3333. For the same molecule, the IC50 (80 mV, 2 µM Ca2+) was 0.88 µM, the remaining activity at 1 µM (80 mV) was 47.5% and the remaining activity at 3 µM (80 mV) was 21%. The remaining activity at 10 µM (80 mV) was 9.17%, the remaining activity at 30 µM (80 mV) was 3.99% and the IC50 (100 mV, 2 µM Ca2+) was 0.898 µM. The remaining activity at 1 µM (100 mV) was 48.7%, the remaining activity at 3 µM (100 mV) was 20.5% and the remaining activity at 10 µM (100 mV) was 9.32%. The remaining activity at 30 µM (100 mV) was 4.29%, the IC50 (120 mV, 2 µM Ca2+) was 0.985 µM and the remaining activity at 1 µM (120 mV) was 50.9%. The remaining activity at 3 µM (120 mV) was 22%, the remaining activity at 10 µM (120 mV) was 10.5% and the remaining activity at 30 µM (120 mV) was 5.23%. It also gave an IC50 (140 mV, 2 µM Ca2+) of 1.17 µM, a remaining activity at 1 µM (140 mV) of 55.6% and a remaining activity at 3 µM (140 mV) of 24.7%. It also gave a remaining activity at 10 µM (140 mV) of 12.4%, a remaining activity at 30 µM (140 mV) of 6.82% and an IC50 (-20 mV, 2 µM Ca2+) of 2.34 µM. The remaining activity at 1 µM (-20 mV) was 71.8%, the remaining activity at 3 µM (-20 mV) was 42.4% and the remaining activity at 10 µM (-20 mV) was 18.6%. It also gave a remaining activity at 30 µM (-20 mV) of 8.09%, an IC50 (-40 mV, 2 µM Ca2+) of 3.08 µM and a remaining activity at 1 µM (-40 mV) of 76.6%. It also gave a remaining activity at 3 µM (-40 mV) of 49.5%, a remaining activity at 10 µM (-40 mV) of 23.3% and a remaining activity at 30 µM (-40 mV) of 10.7%. The IC50 (-60 mV, 2 µM Ca2+) was 4.04 µM, the remaining activity at 1 µM (-60 mV) was 81.3% and the remaining activity at 3 µM (-60 mV) was 56.4%. For the same molecule, the remaining activity at 10 µM (-60 mV) was 28.3%, the remaining activity at 30 µM (-60 mV) was 13.4% and the IC50 (-80 mV, 2 µM Ca2+) was 5.19 µM. The remaining activity at 1 µM (-80 mV) was 84.8%, the remaining activity at 3 µM (-80 mV) was 62.7% and the remaining activity at 10 µM (-80 mV) was 33.3%. The remaining activity at 30 µM (-80 mV) was 16.6%, the IC50 (-100 mV, 2 µM Ca2+) was 6.66 µM and the remaining activity at 1 µM (-100 mV) was 87.3%. The remaining activity at 3 µM (-100 mV) was 68.5%, the remaining activity at 10 µM (-100 mV) was 38.7% and the remaining activity at 30 µM (-100 mV) was 20.5%. It also gave an IC50 (-120 mV, 2 µM Ca2+) of 8.29 µM, a remaining activity at 1 µM (-120 mV) of 88.8% and a remaining activity at 3 µM (-120 mV) of 72.5%. For the same molecule, the remaining activity at 10 µM (-120 mV) was 44.2%, the remaining activity at 30 µM (-120 mV) was 24.7% and the IC50 (-140 mV, 2 µM Ca2+) was 10.2 µM. It also gave a remaining activity at 1 µM (-140 mV) of 89.3%, a remaining activity at 3 µM (-140 mV) of 76.3% and a remaining activity at 10 µM (-140 mV) of 49.3%. For the same molecule, the remaining activity at 30 µM (-140 mV) was 28.8%, the IC50 (Q637A, V 0 mV) was 1.82 µM and the IC50 (Q637A, V 20 mV) was 1.4 µM. It also gave an IC50 (Q637A, V 40 mV) of 1.15 µM, an IC50 (Q637A, V 60 mV) of 0.956 µM and an IC50 (Q637A, V 80 mV) of 0.88 µM. It also gave an IC50 (Q637A, V 100 mV) of 0.898 µM, an IC50 (Q637A, V 120 mV) of 0.985 µM and an IC50 (Q637A, V 140 mV) of 1.17 µM. The IC50 (Q637A, V -20 mV) was 2.34 µM, the IC50 (Q637A, V -40 mV) was 3.08 µM and the IC50 (Q637A, V -60 mV) was 4.04 µM. It also gave an IC50 (Q637A, V -80 mV) of 5.19 µM, an IC50 (Q637A, V -100 mV) of 6.66 µM and an IC50 (Q637A, V -120 mV) of 8.29 µM. It also gave an IC50 (Q637A, V -140 mV) of 10.2 µM.
